Laboratory results as given in US20040265877A1, “Methods for detecting presence of cellular constituents” (Marantech Holding, LLC, priority 2003, published 2004).

Experiments:
[1] = system: HeLa cells; test: Binding/staining of HeLa cervical carcinoma cells; format: cell-based, human
Procedure: (§1) This example is directed to a reagent kit to determine the presence of cancer cells in cervical specimens (i.e., Pap (Papanicolaou test) smears).
Next, HeLa cells were mixed with epithelial (cheek) cells to create a simulated Pap smear.
(§2) TST solution (soluble TST) was prepared by adding 5 mg of TST to 1 ml of dd H2O. Inadvertent “grounding” of the TST was avoided. The solution was mixed gently and thoroughly by pipetting up and down. Formation of air bubbles and excessive agitation were avoided. The solution was centrifuged for 15 seconds at 1,000 rpm to settle excess TST. Soluble TST was added to a sample slide (picking up and depositing undissolved TST was avoided). The slide was incubated at room temperature for 10 minutes, followed by rinsing by either dipping the slide five times in a beaker of distilled water, or using the dual pipette method to remove excess TST. Dual pipette method: Using two pipettes, water was slowly added to the slide at one corner while the solution was simultaneously drawn up into the other pipette from a distal corner of the sample. Without intending to be bound by theory, the idea was to create somewhat of a flow across the sample, to gently wash it. The sample was quickly and gently blotted once or twice with a cloth wipe.
The enhancement solution was then prepared. One drop each of the 2-part enhancer was added to a microfuge tube. The mixture was vortexed for 40 seconds, and then immediately added it to the sample (an optional very brief centrifuge step at low speed in order to settle the liquid at the bottom of the tube was performed prior to addition to the sample). The sample was incubated at room temperature for 20-30 minutes. Optionally, the progress of the reaction under was observed using a light microscope. The slide was rinsed by either dipping the slide 5 times into a beaker of distilled water, or by the dual pipette method described above. The sample was quickly and gently blotted once or twice with a cloth wipe, and the sample was allowed to dry. The results were observed either under a light microscope or with the naked eye.

[2] = system: tNOX; settings: HeLa cells; concentration of one part per million (PPM)
Procedure: (§3) NADH oxidase (NOX) activity was determined (as the disappearance of it measured spectrophotometrically at 340 nm) in a reaction mixture (25 mM Tris-MES buffer at pH 7.2, KCN 1 mM) to inhibit low levels of mitochondrial oxidase activity, and 150 micromoles […] at 37° C. with stirring. Activity was measured with pairs of Hitachi U3210 Spectrophotometers. Assays were initiated by the addition of NOX and tetrasilver tetroxide (Ag4O4) for one minute and were repeated on the same sample every 1.5 minutes over a 45-minute period. A mM absorption coefficient of 6.2 was used to determine specific activity.
(§4) Protein disulfide-thiol interchange activity associated with tNOX was measured using the dipyridyldithio substrate dithiodipyridine (DTDP). The assay was performed in 50 mM Tris-MES buffer (pH 7.0) and was initiated by the addition of 0.5 micromoles DTDP in 5 microliters DMSO as a control. The reaction was monitored by tracking an increase in absorption at 340 nm using DTDP, specific activity being calculated using a mM absorption coefficient of 6.2. The spectrophotometric assays were performed simultaneously with the two spectrophotometers and DMSO controls.

[3] = target: tNOX (Homo sapiens, UniProt Q16206); settings: BT-20 mammary cancer cell line
Chain of tNOX (Homo sapiens, UniProt Q16206) (Q16206 whole entry): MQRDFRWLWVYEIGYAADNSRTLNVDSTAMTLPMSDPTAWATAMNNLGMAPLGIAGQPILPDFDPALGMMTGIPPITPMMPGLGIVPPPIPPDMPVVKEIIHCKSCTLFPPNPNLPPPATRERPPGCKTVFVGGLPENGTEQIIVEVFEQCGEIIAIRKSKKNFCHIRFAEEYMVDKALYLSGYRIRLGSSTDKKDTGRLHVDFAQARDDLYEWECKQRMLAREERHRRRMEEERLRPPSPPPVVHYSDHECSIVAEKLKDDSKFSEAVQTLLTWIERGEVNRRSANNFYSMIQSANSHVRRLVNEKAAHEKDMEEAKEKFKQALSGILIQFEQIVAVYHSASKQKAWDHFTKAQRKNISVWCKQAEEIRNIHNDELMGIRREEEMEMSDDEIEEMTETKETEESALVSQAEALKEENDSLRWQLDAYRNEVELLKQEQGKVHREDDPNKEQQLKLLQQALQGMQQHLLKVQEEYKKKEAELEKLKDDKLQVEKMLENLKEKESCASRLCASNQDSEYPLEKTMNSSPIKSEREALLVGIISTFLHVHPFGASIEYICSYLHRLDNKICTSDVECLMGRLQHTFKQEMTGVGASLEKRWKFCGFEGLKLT
Procedure: as §3, §4

[4] = system: toenail fungus; settings: single case, 25% suspension of the composition, topical; cited from earlier work
[5] = system: non-tumor cells (MCF-10A); settings: FIGS. 10A-10B
Source text: (§5) A non-spectrophotometric characterization technique, i.e., scanning electron microscopy (SEM) was used with the procedure set forth in Example VIII.

[6] = system: tumor cells (HeLa); settings: FIG. 7
Source text: as §5

[7] = system: wild type mouse liver; settings: after computer photography enhancement, 40x
Procedure: (§6) Frozen liver slices were obtained, and the two step process described below for non-aqueous testing was performed. The results were viewed with a microscope and computer enhanced. Frozen liver slices from a wild type mouse (non-cancerous) were compared with frozen liver slices from a transgenic mouse expressing tNOX on its liver cells.
(§7) TST solution was prepared by adding 5 mg of TST to 1 ml of dd H2O. Inadvertent “grounding” of the TST was avoided. The solution was mixed gently and thoroughly by pipetting up and down. Air bubbles and excessive agitation were avoided. The solution was centrifuged for 15 seconds at 1,000 rpm to settle excess TST.
(§8) Soluble TST was added to a sample section, while avoiding undissolved TST. The sample was incubated at room temperature for 10 minutes. Excess TST was removed by dipping the section several times in a beaker of distilled water. The sample was quickly and gently blotted once or twice with a cloth wipe.
(§9) The enhancement solution was prepared by placing one drop each of the two-part enhancer into a microfuge tube. The mixture was vortexed for 40 seconds, and immediately added to the sample. The solution was optionally centrifuged briefly at low speed in order to settle the liquid at the bottom of the tube prior to addition to the sample. The sample was incubated at room temperature for 20-30 minutes.

[8] = system: liver cells expressing tNOX; settings: after computer photography enhancement, 40x
Procedure: as §6, §7, §8, §9

[9] = target: CNOX (Homo sapiens, UniProt Q8TC92); settings: MCF-10A human mammary epithelia; elevated concentrations far above 1 PPM
Chain of CNOX (Homo sapiens, UniProt Q8TC92) (Q8TC92 whole entry): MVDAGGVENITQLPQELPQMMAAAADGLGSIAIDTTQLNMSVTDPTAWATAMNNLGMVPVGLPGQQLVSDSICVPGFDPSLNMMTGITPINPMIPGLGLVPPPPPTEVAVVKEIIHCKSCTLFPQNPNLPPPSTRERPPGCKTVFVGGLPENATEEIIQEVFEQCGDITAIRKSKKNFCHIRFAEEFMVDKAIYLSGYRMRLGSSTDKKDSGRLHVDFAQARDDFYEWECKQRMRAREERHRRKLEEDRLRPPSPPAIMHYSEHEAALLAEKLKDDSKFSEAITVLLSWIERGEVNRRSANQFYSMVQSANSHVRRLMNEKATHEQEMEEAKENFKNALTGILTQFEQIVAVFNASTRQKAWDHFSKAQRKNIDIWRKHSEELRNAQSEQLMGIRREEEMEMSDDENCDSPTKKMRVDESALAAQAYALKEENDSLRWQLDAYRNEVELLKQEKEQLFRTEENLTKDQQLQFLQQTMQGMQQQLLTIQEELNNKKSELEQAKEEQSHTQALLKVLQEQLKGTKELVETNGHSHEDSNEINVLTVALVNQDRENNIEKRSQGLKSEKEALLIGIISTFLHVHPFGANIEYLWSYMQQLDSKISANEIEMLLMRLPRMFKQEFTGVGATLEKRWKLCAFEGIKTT
Procedure: as §3, §4
(§10) The procedure was repeated with plasma protein derived from soybean seeds containing CNOX growth regulator.

[10] = system: CNOX; settings: soybean seed plasma protein; elevated concentrations far above 1 PPM
Procedure: as §3, §4, §10

[11] = system: normal cells
Procedure: as §1, §2
The enhancement solution was then prepared. One drop each of the 2-part enhancer was added to a microfuge tube. […]

[12] = single intravenous injection at about 40 ppm of human blood; no reported loss of liver function; cited from earlier work
[13] = system: Herpes virus infected cells; settings: Pap smear samples, FIG. 4
Procedure: as §2
The enhancement solution was then prepared. One drop each of the 2-part enhancer was added to a microfuge tube. The mixture was vortexed for 40 seconds, and then immediately added it to the sample (an optional very brief centrifuge step at low speed in order to settle the liquid at the bottom of the tube was performed prior to addition to the sample). […]

[14] = system: gynecological yeast infection; settings: 10 ppm silver tetroxide and 40 ppm sodium persulfate; cited from earlier work
[15] = system: athlete's foot; settings: single case, solution of 100 ppm of the composition, topical; cited from earlier work

SMILES | staining of HeLa cells ([1]; Fe3O4, FIGS. 9A-9C) | tNOX activity inhibition [2] | tNOX activity inhibition [3] | outcome of infection [4] | binding by SEM [5] | binding by SEM [6] | binding to HeLa cultured cervical cell lines [1] | nuclear staining ([1]; Pap smear samples, FIG. 4) | distinguishing HeLa cells from epithelial (cheek) cells ([1]; simulated Pap smear, HeLa mixed with cheek cells) | staining of liver slices [7] | staining of liver slices [8] | effect on CNOX [9] | effect on CNOX [10] | binding to normal cells [11] | nuclear staining ([11]; Pap smear samples, FIG. 4) | liver adverse effect [12] | staining of infected cells [13] | outcome of infection [14] | outcome of infection [15]
[O]=[Fe].[O]=[Fe][O][Fe]=[O] [Fe3O4, triiron tetroxide] | selectively stained |  |  |  |  |  |  |  |  |  |  |  |  |  |  |  |  |  | 
[Ag+].[Ag+].[Ag+].[Ag+].[O-2].[O-2].[O-2].[O-2] [tetrasilver tetroxide] |  | inhibited completely | the same as in Example VIfI | cure | non-binding | actual binding | bound covalently | black staining of nuclei | selective binding with and darkening of the cytoplasmic membrane of the HeLa cells | did not | black nuclei and black borders | not affected at all | not affected at all | without binding | no nuclear staining | hepatomegaly | brown staining | curing | cure
